Source: patent publication US9840478B2 (MERCK SHARP & DOHME CORP., priority 2013, dated 2017)

System: HIV-1 (H9IIIB strain)
Experiment: Cell-based HIV infection assay using a reporter (Cell-Based), MT4-GFP cells
Details: Human immunodeficiency virus 1, MT4-GFP cells infected with HIV-1 H9IIIB; 50% normal human serum; mean of at least two independent experiments; read-out: Cell-based IP
Description: Cell-Based HIV Infection Assay Using a Reporter (“Cell-Based”):
MT4-GFP cells contain a stably integrated HIV long terminal repeat promoter directing the transcription of green fluorescent protein (GFP). When HIV infects the cell, GFP is produced and the cell becomes green. MT4-GFP cells (250,000 cells/ml) were bulk-infected with HIV-1 (H9IIIB strain) at low multiplicity of infection (MOI) in RPMI media, supplemented with 10% FBS for 24 hours. Cells were then washed once in RPMI plus 10% FBS and resuspended in RPMI plus 50% normal human serum (NHS). Test compounds were serial-diluted in DMSO using an ECHO liquid dispenser. A control well included a combination of three HIV drugs (an inhibitor of HIV protease, integrase strand transfer and a non-nucleoside reverse transcriptase inhibitor; triple drug). The infected MT4-GFP cells were added to a 384-well poly-D-lysine coated black plate with clear bottom in which the diluted test compounds were placed. The cells were seeded in the plate at 8,000 cells per well and the final DMSO concentration was 0.4%. Infected cells were quantified at both 24 and 48 hours post incubation using an Acumen eX3 plate reader. Viral reproductive ratio (R0) was determined using the number of infected cells at 48 hours divided by the number of infected cells at 24 hours. Percent viral growth inhibition was calculated by [1−(R−Rtripledrug)/(RDMSO−Rtripledrug)]*100. Compound potency IP or IC50 was determined with use of a 4-parameter dose response curve analysis.

COC(=O)N[C@H](C(=O)Nc1cccc(F)c1CC[C@H]1CNC[C@@H](C)N1S(=O)(=O)c1ccc(F)cc1)[C@@H](c1ccc(Cl)cc1)C1CCOCC1 [Example 18, Methyl ((1R,2S)-1-(4-chlorophenyl)-3-((3-fluoro-2-(2-((2S,6R)-1-((4-fluorophenyl)sulfonyl)-6-methylpiperazin-2-yl)ethyl)phenyl)amino)-3-oxo-1-(tetrahydro-2H-pyran-4-yl)propan-2-yl)carbamate]
IC50: 8.6 nM

COC(=O)N[C@H](C(=O)Nc1cccc(F)c1CC[C@H]1CNCCN1S(=O)(=O)c1ccccc1)[C@@H](c1ccc(Cl)cc1)c1ccc(OC)nc1 [Example 5, Methyl ((1S,2S)-1-(4-chlorophenyl)-3-((3-fluoro-2-(2((S)-1-(phenylsulfonyl)piperizin-2-yl)ethyl)phenyl)amino)-1-(6-methoxypyridin-3-yl)-3-oxopropan-2-yl)carbamate]
IC50: 5.9 nM

COC(=O)N[C@H](C(=O)Nc1cncc(F)c1CC[C@H]1CNCCN1S(=O)(=O)c1ccccc1)C(c1cccc(F)c1)c1cccc(F)c1 [Example 54, 3-fluoro-β-(3-fluorophenyl)-N-(5-fluoro-4-{2-[(2S)-1-(phenylsulfonyl)piperazin-2-yl]ethyl}pyridin-3-yl)-Nα-(methoxycarbonyl)-L-phenylalaninamide]
IC50: 9.8 nM

O=C(C[C@@H](c1ccc(F)cc1)c1cc(F)cc(F)c1)Nc1cncc(F)c1CC[C@H]1CNCCN1S(=O)(=O)NCC(F)CCl (stereo partly drawn) [Example 339, (3S)-N-[4-(2-{(2S)-1-[(3-chloro-2-fluoropropyl)sulfamoyl]piperazin-2-yl}ethyl)-5-fluoropyridin-3-yl]-3-(3,5-difluorophenyl)-3-(4-fluorophenyl)propanamide]
IC50: 40 nM

CC[C@@H]1CNC[C@H](CCc2c(F)cccc2NC(=O)[C@@H](NC(=O)OC)[C@@H](c2ccc(Cl)cc2)C2CCOCC2)N1S(=O)(=O)c1ccccc1 [Example 267, methyl ((1R,2S)-1-(4-chlorophenyl)-3-((2-(2-((2S,6R)-6-ethyl-1-(phenylsulfonyl)piperazin-2-yl)ethyl)-3-fluorophenyl)amino)-3-oxo-1-(tetrahydro-2H-pyran-4-yl)propan-2-yl)carbamate]
IC50: 24 nM

CC(C)[C@H](c1ccc(Cl)cc1)[C@H](N)C(=O)Nc1cccc(F)c1CC[C@H]1CNC[C@H](C)N1S(=O)(=O)c1ccc(OC(F)(F)F)cc1 [Example 140, (βR)-4-chloro-N-(3-fluoro-2-{2-[(2S,6S)-6-methyl-1-{[4-(trifluoromethoxy)phenyl]sulfonyl}piperazin-2-yl]ethyl}phenyl)-β-(1-methylethyl)-L-phenylalaninamide]
IC50: 250 nM

COC(=O)N[C@H](C(=O)Nc1cccc(F)c1CC[C@H]1CNC[C@@H](C)N1S(=O)(=O)c1ccccc1Cl)[C@@H](c1ccc(F)cc1)c1cc(F)cc(F)c1 [Example 232, (βS)-N-[2-(2-{(2S,6R)-1-[(2-chlorophenyl)sulfonyl]-6-methylpiperazin-2-yl}ethyl)-3-fluorophenyl]-β-(3,5-difluorophenyl)-4-fluoro-Nα-(methoxycarbonyl)-L-phenylalaninamide]
IC50: 190 nM

COC(=O)N[C@H](C(=O)Nc1cncc(F)c1CC[C@H]1CNCCN1S(C)(=O)=O)[C@@H](c1ccc(F)cc1)c1cc(F)cc(F)c1 [Example 48, methyl ((1S,2S)-1-(3,5-difluorophenyl)-3-((5-fluoro-4-(2-((S)-1-(methylsulfonyl)piperazin-2-yl)ethyl)pyridin-3-yl)amino)-1-(4-fluorophenyl)-3-oxopropan-2-yl)carbamate]
IC50: 66 nM

O=C(C[C@@H](c1ccc(F)cc1)c1cc(F)cc(F)c1)Nc1cncc(F)c1CC[C@H]1CNCCN1S(=O)(=O)c1cccnc1 [Example 305, (3S)-3-(3,5-difluorophenyl)-3-(4-fluorophenyl)-N-(5-fluoro-4-{2-[(2S)-1-(pyridin-3-ylsulfonyl)piperazin-2-yl]ethyl}pyridin-3-yl)propanamide]
IC50: 8.2 nM
